Read-outs that look alike come from different tables or passages of the source.
Columns and labels:
[1] = target: calcium-saturated calmodulin (CaM·4Ca^2+) (Sus scrofa, UniProt F2Z5G3)
calmodulin [2] = details: amino- and carboxy-terminal deletion peptides; ref [38]; cited from earlier work
calmodulin [3] = details: read-out: dissociation constant; 25°C, pH 7.3; fluorescence of dansylcalmodulin; ref [33]; cited from earlier work
[4] = target: calcium-saturated calmodulin (CaM·4Ca^2+) (Homo sapiens, UniProt P0DP23)
calmodulin [5] = details: read-out: dissociation constant; 4°C, pH 7.0; equilibrium dialysis; ref [35]; cited from earlier work
[6] = target: Porcine calmodulin saturated with calcium (CaM·4Ca2+) (porcine); experiment: HDX-MS
[7] = target: Porcine calmodulin saturated with calcium (CaM·4Ca2+) (porcine); experiment: HDX-MS; remark: listed apart in the source
[8] = from ΔD1, corrected for 50% D2O

Sequence of β-endorphin (P01189 237-267): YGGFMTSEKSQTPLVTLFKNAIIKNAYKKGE

| Molecule | ΔD1 (difference in deuterium uptake between bound and unbound peptide) ([1]; dPLIMSTEX, peptide mass readout, 50% D2O) | backbone amides of the peptide protected upon binding to CaM·4Ca^2+ [1, 8] | domain responsible for inhibition of calmodulin function (calmodulin [2]) | Kd (calmodulin [3]) | backbone amide protons of CaM·4Ca^2+ that become protected on binding [4, 8] | ΔD1 (difference in deuterium uptake of the protein on binding) ([4]; traditional PLIMSTEX, protein mass readout, 50% D2O) | Kd (calmodulin [5]) | Ka [6] | Kd [6] | Ka [7] | Kd [7] |
| --- | --- | --- | --- | --- | --- | --- | --- | --- | --- | --- | --- |
| CC[C@H](C)[C@H](NC(=O)[C@H](C)NC(=O)[C@H](CC(N)=O)NC(=O)[C@H](CCCCN)NC(=O)[C@H](Cc1ccccc1)NC(=O)[C@H](CC(C)C)NC(=O)[C@@H](NC(=O)[C@@H](NC(=O)[C@H](CC(C)C)NC(=O)[C@@H]1CCCN1C(=O)[C@@H](NC(=O)[C@H](CCC(N)=O)NC(=O)[C@H](CO)NC(=O)[C@H](CCCCN)NC(=O)[C@H](CCC(=O)O)NC(=O)[C@H](CO)NC(=O)[C@@H](NC(=O)[C@H](CCSC)NC(=O)[C@H](Cc1ccccc1)NC(=O)CNC(=O)CNC(=O)[C@@H](N)Cc1ccc(O)cc1)[C@@H](C)O)[C@@H](C)O)C(C)C)[C@@H](C)O)C(=O)N[C@H](C(=O)N[C@@H](CCCCN)C(=O)N[C@@H](CC(N)=O)C(=O)N[C@@H](C)C(=O)N[C@@H](Cc1ccc(O)cc1)C(=O)N[C@@H](CCCCN)C(=O)N[C@@H](CCCCN)C(=O)NCC(=O)N[C@@H](CCC(=O)O)C(=O)O)[C@@H](C)CC [β-endorphin] | 3.96 ± 0.09 | at least eight | residues 14–25 | 1.9 to 3.8 µM | approximately 30 | 15.0 | 2.5 to 4.6 µM |  |  |  |  |
| β-endorphin (from UniProt P01189 237-267) (peptide) |  |  |  |  |  |  |  | 220000 M⁻¹ | 4.5 µM | 205000 M⁻¹ | 4.9 µM |

Source: PMC2932787 (Journal of the American Society for Mass Spectrometry, 2010)
